Measured values published in PMC4788259 (PLoS Neglected Tropical Diseases, 2016).
“And” between values parts separate entries of the source, which are not always exact repeats. Identical values can stand only once. Like-named read-outs stand apart in the source and are kept apart here.

Key:
[1] = test system: adult worms; set-up: method as in PMID 24416463; details: in vitro; read-out: IC50 against adult worms; cited from earlier work
[2] = test system: E. multilocularis metacestodes; assay: PGI assay: phosphoglucose isomerase release from damaged metacestodes; assay type: cell-based, Echinococcus multilocularis; details: 5 days; for activity in PGI assay at 1 μM: triplicates; for PGI (% of DB1127 at 10 uM): single wells, relative to DB1127 (10 μM)
Summary of the method: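 E. multilocularis metacestode vesicles (strain H95, grown in BALB/c mice, 2–4 mm diameter) were exposed in vitro to compounds for 5 days. Damage was read as phosphoglucose isomerase released into the medium. Initial screening used 10 μM in single wells, with 0.1% DMSO as negative control. EC50 values were derived from this read-out.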

[3] = test system: newly transformed schistosomula; set-up: method as in PMID 24416463; details: in vitro; read-out: IC50 against newly transformed schistosomula; cited from earlier work
[4] = test system: S. mansoni; set-up: method as in PMID 24416463; details: cited from earlier work
[5] = test system: E. multilocularis metacestodes; assay: Peroral treatment of secondary infected mice; assay type: in vivo, BALB/c mice; details: p.o. gavage 5 days per week, 4 weeks, MMV665807 100 mg/kg, ABZ 200 mg/kg
Protocol: (§1) Animals were kept at a temperature-controlled 12/12 hours light cycle with food and water ad libitum and according to the Swiss Animal protection law. For the in vivo treatment of MMV665807, BALB/c mice (from Charles River, Sulzfeld, Germany), at the age of 8 weeks with an average body weight of 20 g, were i.p. infected with 200 μL metacestodes vesicle suspension. This material was prepared from in vitro-cultured metacestodes (strain H95), which were disintegrated by pressing the parasites through a 1 mL pipette tip. Parasite tissue was centrifuged at 500 x g for 5 min at room temperature before being mixed 1:1 in PBS.
Peroral (p.o.) drug treatments by gavage were initiated 6 weeks post-infection and performed as follows: group 1 received no treatment at all; group 2 received 100 μL corn oil containing 7.8 μL DMSO; group 3 mice were treated with 100 μL corn oil containing albendazole (ABZ) in 7.8 μL DMSO, in order to obtain a dosage of 200 mg/kg body weight (positive control); group 4 was treated with 100 μL corn oil containing MMV665807 in 7.8 μL DMSO, resulting in 100 mg/kg body weight. All mice were treated for a total time period of 4 weeks, with consecutive treatment during 5 days per week, and interruption of treatment for 2 days each week. At the end of the treatment, all mice were sedated by isoflurane and subsequently euthanized by CO2. All parasite tissue was resected, placed into a petri dish, and the parasite mass was weighed. Statistical analysis of the in vivo experiments was performed in R version 3.0.1. The data distribution was checked by Shapiro-Wilk test and eventual differences between treatment groups identified by the non-parametric Kruskal-Wallis test. P values were calculated by the non-parametric Wilcoxon […] test with Bonferroni-adjustment. Boxplot visualizations of the data were prepared in Microsoft Excel 2010.

[6] = test system: E. multilocularis metacestodes; assay: Intraperitoneal treatment of secondary infected mice; assay type: in vivo, BALB/c mice; details: 4 weeks, MMV665807 100 mg/kg i.p. three times per week, ABZ 200 mg/kg p.o. 5 days per week
Protocol: as §1
I.p. drug treatments were initiated 2 weeks post-infection. 32 infected mice were randomly separated into 4 groups with 2 times 4 animals per cage. All animals were exposed to 4 weeks of treatment, with five consecutive days of drug application followed by a 2 day recovery period without treatment. Treatment groups were defined as follows: group 1 (control) received 50 μL of corn oil by gavage on 5 days per week, and an i.p. injection of DMSO in corn oil (4 μL DMSO and 46 μL corn oil) on three days per week; group 2 also received corn oil by gavage 5 days per week, and an i.p. injection of MMV665807 (100 mg/kg in 4 μL DMSO plus 46 μL corn oil) three times per week; group 3 was treated with the standard albendazole treatment (albendazole in corn oil, 200 mg/kg/ day for 5 days each week) and also received an i.p. injection of 4 μl DMSO suspended in 46 μl corn oil three times per week; group 4 received a combined treatment consisting of albendazole in corn oil by gavage (200 mg/kg/day 5 days per week) and an i.p. injection of MMV665807 (100 mg/kg three times per week). After 4 weeks of treatment, mice were euthanized and the parasite mass resected and measured as described above. Statistical analyses were performed as described above.

Row | Structure (SMILES) | PGI (% of DB1127 at 10 uM) [2] | also measured
1 | O=C(Nc1ccc(Cl)c(Cl)c1)Nc1ccc(Cl)c(Cl)c1 [MMV665852] | 14.8% and 14.75% | IC50 [1]: 800 nM; activity in PGI assay at 1 μM [2]: no activity at all; IC50 [3]: 4700 nM; worm burden reduction ([4]; 80 mg/kg): 46%; worm burden reduction ([4]; 400 mg/kg): 52.5%; worm burden reduction ([4]; 4x100 mg/kg): 31.2%
2 | Brc1ccc(Nc2nc3ccccc3nc2Nc2ccc(Br)cc2)cc1 [MMV007224] |  | IC50 [1]: 800 nM; activity in PGI assay at 1 μM [2]: lost its activity; IC50 [3]: > 33000 nM
3 | CCCSc1ccc2nc(NC(=O)OC)[nH]c2c1 [ABZ, albendazole, reference compound] |  | parasite weight compared to control ([5]; start 6 weeks post-infection): significant reduction; adverse effects during treatment [5]: No adverse effects; parasite weight compared to placebo group ([6]; start 2 weeks post-infection): significantly lower; adverse effects during treatment [6]: No adverse effects
4 | COc1cc2c(cc1OC)C1=NNC(=O)C1=NC(C)(C)C2 [MMV084940] | -19.88% | 
5 | COc1cc(-c2nc(-c3ccccc3)c(-c3ccccc3)[nH]2)cc(OC)c1O [MMV020750] | 7.02% | 
6 | Cc1ccc(C2CC(C(F)(F)F)n3nc(C(=O)N4CCN(C(c5ccccc5)c5ccccc5)CC4)cc3N2)cc1 (centres unmarked) [MMV000699] | -1.50% | 
7 | COc1ccccc1C(=O)ON=C(N)Cc1cccc2ccccc12 [MMV666686] | 1.82% | 
8 | CC1CN(C(=O)c2sc3ccccc3c2Cl)CC(C)O1 (centres unmarked) [MMV020492] | -44.30% | 
9 | COc1cc(SC)ccc1C(=O)N1CCCC(C)C1 (centres unmarked) [MMV056726] | 16.15% | 
10 | CCOc1ccccc1NC(=O)CN1CCN(C(=O)c2ccco2)CC1 [MMV007791] | -28.95% | 
11 | CCOc1ccc(Nc2c3ccccc3nc3ccccc23)cc1.Cl [MMV000304] | 38.31% | 
12 | CCOc1cc2c(cc1OCC)C(c1cc(OC)c(O)cc1Cl)NCC2 (centres unmarked) [MMV008956] | -28.84% | 
13 | COc1cc(OC)c(N(C)C(=O)c2cc3c(s2)-c2ccccc2S(=O)(=O)C3)cc1Cl [MMV006427] | -47.62% | 
14 | COc1cc(C(=O)Nc2nc3c(cc4c5c(cccc53)CC4)s2)cc(OC)c1OC [MMV396665] | -11.85% | 
15 | COc1ccc(C(=O)C(CCC(CNC(C)(C)C)C(=O)c2ccc(OC)cc2)CNC(C)(C)C)cc1 (centres unmarked) [MMV007591] | -0.71% | 
16 | COCCn1c(C)nc2ccccc2c1=O [MMV665904] | -26.17% | 
17 | Cl.Cn1c(=O)n(C)c2cc(CNCCNc3ccnc4cc(Cl)ccc34)ccc21 [MMV665875] | 7.55% | 
18 | O=C(Nc1ccc(-c2nc3cc(NC(=O)c4ccc(Cl)cc4)ccc3[nH]2)cc1)c1ccc(Cl)cc1 [MMV006962] | -9.85% | 
19 | CCN(CC)CCCNc1ccnc2cc3ccccc3cc12 [MMV665783] | -52.95% | 
20 | CCOC(=O)c1c(NC(=O)c2ccccc2)sc2c(O)c(CN(CC)CC)ccc12 [MMV665831] | -16.80% | 
21 | CN1CCN(c2ncnc3c2[nH]c2ccc(Cl)cc23)CC1 [MMV396704] | -24.85% | 
22 | O=C(Nc1ccc(F)c(Cl)c1)Nc1ccc(Cl)c(Cl)c1 [MMV665953] | 213.83% | 
23 | CCc1c(C)c(=N)c2ccccc2n1C.I [MMV006278] | -42.72% | 
24 | CC(O)(c1ccc(Cl)cc1)C(CN1CCCCC1)c1ccccc1.Cl (centres unmarked) [MMV000620] | -136.22% | 
25 | Cc1ccc(NC(=O)Nc2cccc(Cl)c2)cc1F [MMV000911] | 185.05% | 
26 | Cc1ccc(-c2nc3ccccc3o2)cc1NCc1cc(Cc2ccccc2)ccc1O [MMV020912] | -2.94% | 

Row | Structure (SMILES) | PGI (% of DB1127 at 10 uM) [2] | also measured
27 | O=C(Nc1ccccc1O)c1ccc(-c2ccc(Cl)cc2Cl)o1 [MMV665948] | -40.46% | 
28 | Cc1cc(C)c2nc(N3CCC(C(=O)NCCCN4CCC(N5CCCCC5)CC4)CC3)sc2c1 [MMV019780] | 36.03% | 
29 | CCOc1ccc2nc(C)cc(Nc3ccc(Br)cc3)c2c1 [MMV006522] | 30.79% | 
30 | Br.Cc1ccc(C)c(-c2csc(Nc3ccc(C)c(C)c3)n2)c1 [MMV007654] | 3.26% | 
31 | O=C(O)C(=O)O.Oc1ccc(Br)cc1CN1CCN(Cc2cccc(F)c2)CC1 [MMV000356] | -18.68% | 
32 | Nc1ccc(-c2nc3cc(Cc4ccc5[nH]c(-c6ccc(N)cc6)nc5c4)ccc3[nH]2)cc1 [MMV665943] | 9.49% | 
33 | CCOc1cccc2sc(N(Cc3cccnc3)C(=O)C3CCCCC3)nc12 [MMV001230] | -26.73% | 
34 | CCCC(c1nnnn1C1CCCCC1)N1CCN(C(=O)c2ccco2)CC1.Cl (centres unmarked) [MMV666093] | -0.54% | 
35 | CCOC(=O)c1cnc2c(C)cc(C)cc2c1Nc1ccc(OC)c(OC)c1 [MMV008294] | -43.41% | 
36 | COc1ccccc1CNC(=O)C1c2ccccc2C(=O)N(CC(C)C)C1c1cccs1 (centres unmarked) [MMV000648] | -8.86% | 
37 | CCn1c(SCC(=O)Nc2cc(C(F)(F)F)ccc2Cl)nc2ccccc2c1=O [MMV666103] | -111.41% | 
38 | CC1CCCCN1CCCNC(=O)c1ccc2c(c1)sc1nc(-c3ccc(F)cc3)cn12 (centres unmarked) [MMV000634] | -120.82% | 
39 | COc1ccc(C=C2SC(=N)N(c3ccccc3OC)C2=O)cc1 [MMV666691] | -41.85% | 
40 | CCOC(=O)c1cn(CC)c2cc(N(C)CCc3ccc(OC)c(OC)c3)c(F)cc2c1=O [MMV665977] | -67.06% | 
41 | CCOc1cc2c(cc1OCC)C(c1cc(C)c(O)c(C)c1)NCC2.Cl (centres unmarked) [MMV000483] | -22.26% | 
42 | O=C(Nc1ccc(N2CCCCC2)c(Cl)c1)c1ccc(Br)o1 [MMV019700] | -40.52% | 
43 | COc1ccccc1N1CCN(C(CNS(=O)(=O)c2ccc(Cl)cc2)c2cccnc2)CC1 (centres unmarked) [MMV665914] | 1.92% | 
44 | COc1ccc(C(=O)NC(c2ccc(Cl)cc2Cl)c2cc(Cl)c3cccnc3c2O)cc1 (centres unmarked) [MMV666054] | 1.08% | 
45 | COc1ccc(CN2CCN(Cc3ccccc3)CC2)c(O)c1 [MMV665944] | -7.26% | 
46 | COc1ccc(Nc2cc(C)nc(NCc3ccccc3)n2)cc1 [MMV006825] | 17.48% | 
47 | COCCNC(=O)c1ccc(OC2CCN(Cc3ccc(F)c(F)c3)CC2)c(Cl)c1 [MMV666072] | -116.21% | 
48 | CC(C)c1ccc(CNCC(O)c2ccccc2)cc1.Cl (centres unmarked) [MMV001049] | 12.43% | 
49 | CCOC(=O)c1c(C)n(-c2ccccc2)c2ccc(OC(=O)c3cc(OC)c(OC)c(OC)c3)cc12 [MMV396664] | -2.70% | 
50 | COc1ccc(CCNC(=O)c2cc(S(=O)(=O)N3CC(C)CC(C)C3)ccc2Sc2ccc(F)cc2)cc1OC (centres unmarked) [MMV007557] | 14.98% | 
51 | O=C(NCc1ccco1)C1CCN(S(=O)(=O)c2ccc(Cl)cc2)CC1 [MMV006188] | -16.08% | 
